Test results reported in patent US20230242530A1, “8-(AZETIDIN-1-YL)-[1,2,4]TRIAZOLO[1,5-A]PYRIDINYL COMPOUNDS, COMPOSITIONS AND METHODS OF USE THEREOF” (Genentech, Inc., priority 2016, published 2023).
pEC50, pKi: −log10 of the molar value.

How the values were obtained:
[1] = molecular target: T1, isolated recombinant JAK1 kinase domain (Homo sapiens, UniProt P23458); assay: JAK enzyme assay, JAK1 kinase domain (Caliper LabChip); type: biochemical; settings: 1.5 nM JAK1, ATP 25 μM, Morrison tight binding model
T1 construct: isolated recombinant JAK1 and JAK2 kinase domain
In short: (§1)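 Recombinant kinase domains phosphorylated a 5-carboxyfluorescein-labelled JAK3-derived peptide for 30 min at 22 °C, and the reaction was stopped with EDTA (50 mM final). Product fraction was measured by Caliper LabChip mobility shift. Ki came from Morrison tight-binding fits corrected for ATP competition (Ki=Ki,app/(1+[ATP]/Km,app)).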

[2] = system: JAK1-dependent STAT6 phosphorylation downstream of IL-13 stimulation in BEAS-2B cells; assay: JAK1 pathway assay in cell lines: IL-13 p-STAT6 BEAS-2B; type: cell-based; settings: BEAS-2B human bronchial epithelial cells, 1 hr compound, IL-13 15 min, MSD readout
In short: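 BEAS-2B cells plated a day ahead in complete growth medium; compounds added 1 hr at 37 °C (0.2% DMSO final), then IL-13 at lot-specific EC90 for 15 min at 37 °C. Phospho-STAT6 in lysates measured by MSD; EC50 is 50% inhibition relative to DMSO control.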

[3] = molecular target: T2, isolated recombinant JAK2 kinase domain (Homo sapiens, UniProt O60674); assay: JAK enzyme assay, JAK2 kinase domain (Caliper LabChip); type: biochemical; settings: 0.2 nM JAK2, ATP 25 μM, Morrison tight binding model
T2 construct: isolated recombinant JAK1 and JAK2 kinase domain
In short: as §1

T1 sequence (P23458 875-1153 limits assumed): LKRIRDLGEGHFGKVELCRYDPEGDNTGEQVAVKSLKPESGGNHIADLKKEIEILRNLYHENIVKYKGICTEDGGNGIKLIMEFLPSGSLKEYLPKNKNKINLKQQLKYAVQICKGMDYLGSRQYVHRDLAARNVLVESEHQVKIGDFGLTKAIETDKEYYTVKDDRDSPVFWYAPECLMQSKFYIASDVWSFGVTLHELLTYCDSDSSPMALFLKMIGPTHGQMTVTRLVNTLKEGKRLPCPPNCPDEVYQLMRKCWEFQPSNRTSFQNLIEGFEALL
T2 sequence (O60674 849-1124 limits assumed): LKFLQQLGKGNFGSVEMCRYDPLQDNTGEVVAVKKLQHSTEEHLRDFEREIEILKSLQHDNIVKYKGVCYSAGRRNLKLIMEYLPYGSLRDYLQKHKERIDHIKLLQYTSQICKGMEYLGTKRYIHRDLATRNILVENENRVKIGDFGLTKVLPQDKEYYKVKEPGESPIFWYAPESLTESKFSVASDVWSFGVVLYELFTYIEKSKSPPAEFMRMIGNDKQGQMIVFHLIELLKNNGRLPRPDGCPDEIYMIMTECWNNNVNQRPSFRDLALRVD

| pKi [1] | pKi [3] | Compound | pEC50 [2] |
| --- | --- | --- | --- |
| 10.00 | 9.70 | N#CCC1(n2cc(OC(F)F)cn2)CN(c2cccn3nc(Nc4cnn(CC(F)F)c4)nc23)C1 [Example 150, 2-[1-[2-[[1-(2,2-difluoroethyl)pyrazol-4-yl]amino]-[1,2,4]triazolo[1,5-a]pyridin-8-yl]-3-[4-(difluoromethoxy)pyrazol-1-yl]azetidin-3-yl]acetonitrile] | 8.22 |
| 9.52 | 9.52 | CCc1cccc(C2(CC#N)CN(c3cccn4nc(Nc5cnn(CC(=O)N6CCN(C)CC6)c5)nc34)C2)c1 [Example 71, 2-[3-(3-ethylphenyl)-1-[2-[[1-[2-(4-methylpiperazin-1-yl)-2-oxo-ethyl]pyrazol-4-yl]amino]-[1,2,4]triazolo[1,5-a]pyridin-8-yl]azetidin-3-yl]acetonitrile] | 7.59 |
| 9.40 | 9.22 | CN1CCN(C(=O)c2ccc(Nc3nc4c(N5CC(CC#N)(n6cc(C7CCOCC7)cn6)C5)cccn4n3)cc2)CC1 [Example 113, 2-[1-[2-[4-(4-methylpiperazine-1-carbonyl)anilino]-[1,2,4]triazolo[1,5-a]pyridin-8-yl]-3-(4-tetrahydropyran-4-ylpyrazol-1-yl)azetidin-3-yl]acetonitrile] | 7.37 |
| 9.30 | 8.89 | CCc1cnn(C2(CC#N)CN(c3cccn4nc(Nc5ccc(C(=O)N6CC(C(=O)N7CCN(C)CC7)C6)cc5)nc34)C2)c1 [Example 65, 2-[3-(4-ethylpyrazol-1-yl)-1-[2-[4-[3-(4-methylpiperazine-1-carbonyl)azetidine-1-carbonyl]anilino]-[1,2,4]triazolo[1,5-a]pyridin-8-yl]azetidin-3-yl]acetonitrile] | 7.07 |
| 9.52 | 9.70 | CN1CCN(C(=O)Cn2cc(Nc3nc4c(N5CC(CC#N)(c6ccccc6)C5)cccn4n3)cn2)CC1 [Example 101] | 7.80 |
| 9.70 | 9.52 | CN1CCN(C2CCN(C(=O)Cn3cc(Nc4nc5c(N6CC(CC#N)(c7cccc(Cl)c7)C6)cccn5n4)cn3)CC2)CC1 [Example 70, 2-[3-(3-chlorophenyl)-1-[2-[[1-[2-[4-(4-methylpiperazin-1-yl)-1-piperidyl]-2-oxo-ethyl]pyrazol-4-yl]amino]-[1,2,4]triazolo[1,5-a]pyridin-8-yl]azetidin-3-yl]acetonitrile] | 8.00 |
| 9.70 | 9.30 | CCc1cnn(C2(CC#N)CN(c3cccn4nc(Nc5cnn(CC(=O)N6CCC(N(C)CC(C)(C)C#N)CC6)c5)nc34)C2)c1 [Example 52, 3-[[1-[2-[4-[[8-[3-(cyanomethyl)-3-(4-ethylpyrazol-1-yl)azetidin-1-yl]-[1,2,4]triazolo[1,5-a]pyridin-2-yl]amino]pyrazol-1-yl]acetyl]-4-piperidyl]-methyl-amino]-2,2-dimethyl-propanenitrile] | 7.89 |
| 8.70 | 8.42 | Cc1ccccc1-c1cnn(C2(CC#N)CN(c3cccn4nc(Nc5cnn(CC(=O)N6CCC(N(C)C7COC7)CC6)c5)nc34)C2)c1 [Example 124] | 7.07 |
| 8.62 | 7.64 | N#CCC1(n2cc(C(F)(F)F)cn2)CN(c2cccn3nc(Nc4ccc(CC(=O)N5CCN(C6COC6)CC5)cc4)nc23)C1 [Example 115, 2-[1-[2-[4-[2-[4-(oxetan-3-yl)piperazin-1-yl]-2-oxo-ethyl]anilino]-[1,2,4]triazolo[1,5-a]pyridin-8-yl]-3-[4-(trifluoromethyl)pyrazol-1-yl]azetidin-3-yl]acetonitrile] | 6.86 |
| 9.30 | 8.72 | CCc1cnn(C2(CC#N)CN(c3cccn4nc(Nc5cnn(CC(=O)N6CCN(CC)CC6)c5)nc34)C2)c1 [Example 41] | 7.19 |
| 9.52 | 9.05 | CSc1cccc(C2(CC#N)CN(c3cccn4nc(Nc5cnn(CC(=O)N6CCN(C)CC6)c5)nc34)C2)c1 [Example 78] | 7.77 |

The remaining lines, values behind:

| Compound | pKi [1] | pKi [3] | pEC50 [2] |
| --- | --- | --- | --- |
| CN1CCN(C(=O)c2cccc(Nc3nc4c(N5CC(CC#N)(n6cc(C(F)(F)F)cn6)C5)cccn4n3)c2)CC1 [Example 110, formic acid;2-[1-[2-[3-(4-methylpiperazine-1-carbonyl)anilino]-[1,2,4]triazolo[1,5-a]pyridin-8-yl]-3-[4-(trifluoromethyl)pyrazol-1-yl]azetidin-3-yl]acetonitrile] | 9.10 | 9.05 | 7.00 |
| N#CCC1(n2cc(C3CC3)cn2)CN(c2cccn3nc(Nc4cn[nH]c4)nc23)C1 [Example 140, 2-[3-(4-cyclopropylpyrazol-1-yl)-1-[2-(1H-pyrazol-4-ylamino)-[1,2,4]triazolo[1,5-a]pyridin-8-yl]azetidin-3-yl]acetonitrile] | 10.00 | 9.70 | 7.96 |
| CCc1cnn(C2(CC#N)CN(c3cccn4nc(Nc5cccc(CC(=O)N6CCN(C)CC6)c5)nc34)C2)c1 [Example 5, 2-[3-(4-ethyl-1H-pyrazol-1-yl)-1-[2-([3-[2-(4-methylpiperazin-1-yl)-2-oxoethyl]phenyl]amino)-[1,2,4]triazolo[1,5-a]pyridin-8-yl]azetidin-3-yl]acetonitrile] | 8.72 | 8.51 | 6.92 |
| CCc1cnn(C2(CC#N)CN(c3cccn4nc(Nc5cnn(CC(=O)N6CCC(N7CCOCC7)CC6)c5)nc34)C2)c1 [Example 29, 2-[3-(4-ethylpyrazol-1-yl)-1-[2-[[1-[2-(4-morpholino-1-piperidyl)-2-oxo-ethyl]pyrazol-4-yl]amino]-[1,2,4]triazolo[1,5-a]pyridin-8-yl]azetidin-3-yl]acetonitrile] | 9.22 | 8.68 | 7.11 |
| CCc1cnn(C2(CC#N)CN(c3cccn4nc(Nc5ccc6c(c5)CCN(C5COC5)C6)nc34)C2)c1 [Example 51, 2-[3-(4-ethylpyrazol-1-yl)-1-[2-[[2-(oxetan-3-yl)-3,4-dihydro-1H-isoquinolin-6-yl]amino]-[1,2,4]triazolo[1,5-a]pyridin-8-yl]azetidin-3-yl]acetonitrile] | 9.52 | 8.80 | 7.36 |
| CSc1cccc(C2(CC#N)CN(c3cccn4nc(Nc5cnn(CC(=O)N6CCC(N7CCOCC7)CC6)c5)nc34)C2)c1 [Example 90, 2-[3-(3-methylsulfanylphenyl)-1-[2-[[1-[2-(4-morpholino-1-piperidyl)-2-oxo-ethyl]pyrazol-4-yl]amino]-[1,2,4]triazolo[1,5-a]pyridin-8-yl]azetidin-3-yl]acetonitrile] | 9.40 | 9.70 | 7.66 |
| CN1CCN(C(=O)Cn2cc(Nc3nc4c(N5CC(CC#N)(n6cc(CCc7ccccc7)cn6)C5)cccn4n3)cn2)CC1 [Example 59, 2-[1-[2-[[1-[2-(4-methylpiperazin-1-yl)-2-oxo-ethyl]pyrazol-4-yl]amino]-[1,2,4]triazolo[1,5-a]pyridin-8-yl]-3-[4-(2-phenylethyl)pyrazol-1-yl]azetidin-3-yl]acetonitrile] | 9.70 | 9.70 | 8.10 |
| N#CCC1(n2cc(Br)cn2)CN(c2cccn3nc(Nc4cnn(CC(=O)N5CCN(C6CCOCC6)CC5)c4)nc23)C1 [Example 129, 2-[3-(4-bromopyrazol-1-yl)-1-[2-[[1-[2-oxo-2-(4-tetrahydropyran-4-ylpiperazin-1-yl)ethyl]pyrazol-4-yl]amino]-[1,2,4]triazolo[1,5-a]pyridin-8-yl]azetidin-3-yl]acetonitrile] | 9.52 | 9.10 | 7.31 |
| CCc1cnn(C2(CC#N)CN(c3cccn4nc(Nc5cnn(CC(=O)N6CCC(CN7CCOCC7)CC6)c5)nc34)C2)c1 [Example 53, 2-[3-(4-ethylpyrazol-1-yl)-1-[2-[[1-[2-[4-(morpholinomethyl)-1-piperidyl]-2-oxo-ethyl]pyrazol-4-yl]amino]-[1,2,4]triazolo[1,5-a]pyridin-8-yl]azetidin-3-yl]acetonitrile] | 9.05 | 9.22 | 7.51 |
| CCN1CCN(C(=O)Cn2cc(Nc3nc4c(N5CC(CC#N)(c6cccc(SC)c6)C5)cccn4n3)cn2)CC1 [Example 80] | 9.30 | 9.10 | 7.29 |
| CN1CCN(C(=O)c2cc(Nc3nc4c(N5CC(CC#N)(n6cc(C(F)(F)F)cn6)C5)cccn4n3)ccn2)CC1 [Example 111, 2-[1-[2-[[2-(4-methylpiperazine-1-carbonyl)-4-pyridyl]amino]-[1,2,4]triazolo[1,5-a]pyridin-8-yl]-3-[4-(trifluoromethyl)pyrazol-1-yl]azetidin-3-yl]acetonitrile] | 9.15 | 9.40 | 7.41 |
| CCc1cnn(C2(CC#N)CN(c3cccn4nc(Nc5ccc6c(c5)CCN([C@H]5CCOC5)C6)nc34)C2)c1 (stereo in doubt) [Example 62, 2-[3-(4-ethylpyrazol-1-yl)-1-[2-[[2-[rac-(3S)-tetrahydrofuran-3-yl]-3,4-dihydro-1H-isoquinolin-6-yl]amino]-[1,2,4]triazolo[1,5-a]pyridin-8-yl]azetidin-3-yl]acetonitrile] | 9.40 | 9.40 | 7.31 |
| CCc1cnn(C2(CC#N)CN(c3cccn4nc(Nc5ccc(C(=O)N6CC7(CCN(C)CC7)C6)cc5)nc34)C2)c1 [Example 85, 2-[3-(4-ethylpyrazol-1-yl)-1-[2-[4-(7-methyl-2,7-diazaspiro[3.5]nonane-2-carbonyl)anilino]-[1,2,4]triazolo[1,5-a]pyridin-8-yl]azetidin-3-yl]acetonitrile] | 8.96 | 8.03 | 6.71 |
